# pIC50: −log10 of the molar value.
# Columns and labels:
# [1] = test system: UT-7 cells expressing VCP (A530T); assay: growth inhibition of UT-7 cells expressing NMS-873-resistant VCP; assay type: cell-based, human; conditions: four days
# RG37-DR-GFP cells = assay: homologous recombination reporter; assay type: cell-based; conditions: 0.4 μM; 48 hours post-transfection with I-SceI
# [2] = cited from earlier work
# γH2AX = assay: FACS analysis of intracellular gammaH2AX in AML cells; assay type: cell-based, human
# GC92-NHEJ-CD4 cells = assay: non-homologous end-joining reporter; assay type: cell-based; conditions: 0.4 μM; 48 hours post-transfection with I-SceI
# [3] = test system: poly-ubiquitinated proteins, GRP78, spliced XBP-1, ATF-4; assay type: cell-based, human
# [4] = test system: primary patient AML blasts; assay: colony-forming assay of primary patient AML samples in methylcellulose; assay type: cell-based, human; conditions: leukemia cells from patients with AML
# [5] = test system: MV4-11 and UT-7 AML cell lines; assay: Annexin V/propidium iodide staining and flow cytometry; assay type: cell-based, human; conditions: 0.2 μM for 8 days
# MV4-11 cells [6] = assay: combination with doxorubicin in MV4-11 cell line; assay type: cell-based, human; conditions: MV4-11 AML cell line
# [7] = in vivo
# [8] = assay type: in vivo; conditions: mice
# MLL-AF9 cells = assay: MLL-AF9 syngeneic AML mouse model; assay type: in vivo; conditions: for leukemic disease burden: peripheral blood / bone marrow
# human cone PDE6 (PDE6C) = conditions: in vitro biochemical assays; relative to CB-5083
# P-ATM (S1981) = assay: ATM phosphorylation upon etoposide DSB induction; assay type: cell-based, human; conditions: upon etoposide DSBs induction
# MV4-11 cells [9] = assay: cellular viability of MV4-11 AML cell line; assay type: cell-based, human
# [10] = preclinical pharmacokinetics in multiple species; assay type: in vivo; conditions: preclinical studies in multiple species
# [11] = test system: patient-derived primary AML cells; assay: orthotopic patient-derived xenograft; assay type: in vivo, mouse; conditions: PDX; for leukemic disease burden: hCD45+ cells in peripheral blood or bone marrow
# [12] = test system: panel of human cancer cell lines; assay: viability across a panel of human cancer cell lines; assay type: cell-based; conditions: 131 human cancer cell lines, 16 cancer types; three days
# MV4-11-luc cells = conditions: MV4-11 xenograft
# [13] = phase I trial; ref NCT02243917; cited from earlier work
structure (smiles),measurement,setting,value
Cc1cc(OCc2nnc(SC3CCCC3)n2-c2cccnc2)ccc1-c1ccc(S(C)(=O)=O)cc1 [NMS-873],effect of VCP (A530T) expression on compound-induced loss of viability,[1],rescued the loss of viability
same,effect on homologous recombination (HR) DSB repair,RG37-DR-GFP cells,impairment of HR
same,pharmacological and bioavailability properties,[2],lacks appropriate pharmacological and bioavailability properties
same,effect on γH2AX,"γH2AX; MV4-11 and UT-7, 0.4 μM, 72 hours",increased γH2AX
same,effect on non-homologous end-joining (NHEJ),GC92-NHEJ-CD4 cells,did not impair NHEJ
same,concentration at which poly-ubiquitinated proteins started to accumulate,[3]; AML cells,5 µM
same,colony formation of AML blasts,[4],impaired the capacity of AML blasts to form colonies
same,cell death / apoptosis,[5],induced Annexin-positive cell death
Cc1cc2c(C(N)=O)cccc2n1-c1nc2c(c(NCc3ccccc3)n1)CCCN2 [CB-5339],interaction with doxorubicin,MV4-11 cells [6],synergized with doxorubicin
same,times lower Cmax in rat retina compared to CB-5083,[7],31 times
same,"tolerability (weight, blood counts)",[8],well tolerated
same,survival,MLL-AF9 cells,prolonged survival
same,leukemic disease burden,MLL-AF9 cells,decreased circulating leukemic cells
same,fold less active on human cone PDE6 (PDE6C) compared to CB-5083,human cone PDE6 (PDE6C),15 fold
same,effect on ATM phosphorylation,P-ATM (S1981),impaired ATM phosphorylation
same,pIC50,MV4-11 cells [9],6.73
same,effect on γH2AX accumulation,γH2AX; 0.2 μM,increased γH2AX accumulation
same,concentration at which ATF-4 accumulated,[3]; AML context,≥ 0.8 µM
same,concentration at which ER stress marker GRP78 accumulated,[3]; AML context,≥ 0.4 µM
same,concentration at which spliced XBP-1 accumulated,[3]; AML context,≥ 1.6 µM
same,concentration inducing polyubiquitin protein accumulation,"[3]; AML context, dose-dependent",≥ 0.4 µM
same,bioavailability compared to CB-5083,[10],higher bioavailability
same,clearance compared to CB-5083,[10],lower clearance
same,survival,[11]; 90 mg/kg,prolonged mice survival
same,leukemic disease burden,[11],decreased bone marrow leukemic infiltration
Cc1cc2c(C(N)=O)cccc2n1-c1nc2c(c(NCc3ccccc3)n1)COCC2 [CB-5083],sensitivity of AML cell lines versus other cancer subtypes,[12],more sensitive
same,"tolerability (weight, blood counts)",[8],no major weight loss or hematopoietic toxicity
same,survival,MLL-AF9 cells,prolonged mice survival
same,leukemic disease burden,MLL-AF9 cells,decreased disease burden
same,disease burden (bioluminescence),MV4-11-luc cells,decreased disease burden
same,survival,MV4-11-luc cells,prolonged mice survival
same,myelosuppression in patients,[13],not myelosuppressive
same,colony formation of AML blasts,[4],impaired the capacity of AML blasts to form colonies
same,leukemic disease burden,[11],substantially decreased disease burden
